Assay results published in patent publication US7585859B2, “PDE4B inhibitors and uses therefor” (Plexxikon, Inc., priority 2004, dated 2009).

How the values were obtained:
[1] = target: T1, PDE4B: The catalytic domain of human PDE4B from S152-S528 (Homo sapiens, UniProt Q07343); test: PDE4 IC50 determination by Scintillation Proximity Assay, PDE4B; assay type: biochemical; details: Table 1B, Formula I compounds; read-out: IC50 PDE4B
T1 construct: His6 (N); thrombin cleavage site (N); made in house; host or cells: E. coli
Procedure: (§1) IC50s were determined by Scintillation Proximity Assay (SPA). The principle of the assay is based on the fact that cAMP, the PDE4 substrate, binds weakly to Yittrium Silicate SPA beads, whereas AMP, the product of PDE4 hydrolysis binds strongly. Thus, the extent of PDE4 hydrolysis of a sample of [^3H]cAMP can be measured because only the
(§2) [^3H]AMP produced by PDE4 hydrolysis will bind to the SPA beads and produce a scintillation signal.
(§3) PDE4 enzymes used for IC50 assays were:
(§4) Enzyme was stored in 50% glycerol at −20°.
(§5) In addition to the compound dilutions, each assay plate contained control wells with 1 μl of DMSO (to define 0% enzyme inhibition) or 1 μl of 200 μM roflumilast (to define 100% enzyme inhibition). […] Next, 10 μl of PDE4 enzyme in assay buffer was added and the plates were shaken for 30 s. at 1000 rpm to start the cAMP hydrolysis reaction. The concentrations of enzyme used were: PDE4B, 80 ng/ml; PDE4D, 4 ng/ml; PDE4B2, 2.5 μl of 50% glycerol stock/ml; PDE4D5 0.083 μl of 50% glycerol stock/ml. Assay plates were covered and incubated for 30 min. at 30°. […] The assay plates were covered with clear plastic film, centrifuged for 1 min. at 1000 RPM to settle the SPA beads, and counted using a Wallac TriLux scintillation counter. IC50's were calculated from the raw assay data by non-linear regression curve fitting using the Assay Explorer software package from MDL.

PDE4D = target: T2, PDE4D (Homo sapiens, UniProt Q08499); test: PDE4 IC50 determination by Scintillation Proximity Assay, PDE4D; assay type: biochemical; details: Table 1B, Formula I compounds; read-out: IC50 PDE4D
T2 construct: PDE4D: The catalytic domain of human PDE4B from S3 16-V692; His6 (N); thrombin cleavage site (N); made in house; host or cells: E. coli
Procedure: as §1, §2, §3, §4, §5

T2 sequence (Q08499 380-756): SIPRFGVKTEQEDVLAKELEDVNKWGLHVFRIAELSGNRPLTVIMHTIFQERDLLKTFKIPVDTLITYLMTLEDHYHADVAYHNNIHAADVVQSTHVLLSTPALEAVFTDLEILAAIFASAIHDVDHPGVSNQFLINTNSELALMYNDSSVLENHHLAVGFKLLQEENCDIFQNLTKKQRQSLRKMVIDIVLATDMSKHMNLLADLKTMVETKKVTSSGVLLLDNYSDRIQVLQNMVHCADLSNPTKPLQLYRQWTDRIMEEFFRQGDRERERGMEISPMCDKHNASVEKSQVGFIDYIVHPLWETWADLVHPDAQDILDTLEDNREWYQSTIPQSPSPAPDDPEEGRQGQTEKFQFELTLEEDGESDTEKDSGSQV
T1 sequence (Q07343 with tags, fused parts or gaps): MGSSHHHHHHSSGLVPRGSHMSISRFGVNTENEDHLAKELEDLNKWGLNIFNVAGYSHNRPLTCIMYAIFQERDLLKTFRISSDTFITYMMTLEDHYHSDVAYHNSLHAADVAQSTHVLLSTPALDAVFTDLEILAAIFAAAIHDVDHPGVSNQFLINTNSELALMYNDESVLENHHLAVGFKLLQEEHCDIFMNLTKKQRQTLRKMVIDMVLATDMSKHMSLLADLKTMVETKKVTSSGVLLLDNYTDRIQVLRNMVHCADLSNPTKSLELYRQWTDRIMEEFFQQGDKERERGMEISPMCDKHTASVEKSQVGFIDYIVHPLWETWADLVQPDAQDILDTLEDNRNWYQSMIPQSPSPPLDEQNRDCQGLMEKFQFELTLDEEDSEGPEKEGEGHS

SMILES | IC50 [1] [µM] | IC50 (PDE4D) [µM]
COC(=O)C(CCSC)Nc1sc(C(=O)c2ccccn2)c(N)c1C#N (stereo not shown) [Compound 1-65, 2-[4-Amino-3-cyano-5-(pyridine-2-carbonyl)-thiophen-2ylamino]-4-methylsulfanyl-butyric acid methyl ester] | > 10 | > 10
N#Cc1c(NCCN2CCCCC2)sc(C(=O)c2ccc(-c3ccccn3)s2)c1N [Compound 1-70, 4-Amino-2-(2-piperidin-1-yl-ethylamino)-5-(5-pyridin-2-yl-thiophene-2-carbonyl)-thiophene-3-carbonitrile] | < 10 | < 10
COC(=O)C(CC(C)C)Nc1sc(C(=O)c2ccc(-c3ccccn3)s2)c(N)c1C#N (stereo not shown) [Compound 1-72, 2-[4-Amino-3-cyano-5-(5-pyridin-2-yl-thiophene-2-carbonyl)-thiophen-2-ylamino]-4-methyl-pentanoic acid methyl ester] | < 10 | < 10
COC(=O)c1ccccc1Nc1sc(C(=O)c2ccc(-c3ccccn3)s2)c(N)c1C#N [Compound 1-73, 2-[4-Amino-3-cyano-5-(5-pyridin-2-yl-thiophene-2-carbonyl)-thiophen-2-ylamino]-benzoic acid methyl ester] | < 10 | < 10
N#Cc1c(Nc2ccc(Oc3ccccc3)cc2)sc(C(=O)c2ccc(-c3ccccn3)s2)c1N [Compound 1-76, 4-Amino-2-(4-phenoxy-phenylamino)-5-(5-pyridin-2-yl-thiophene-2-carbonyl)-thiophene-3-carbonitrile] | < 10 | > 10
N#Cc1c(NC2CCOC2=O)sc(C(=O)c2ccc(-c3ccccn3)s2)c1N (stereo not shown) [Compound 1-79, 4-Amino-2-(2-oxo-tetrahydro-furan-3-ylamino)-5-(5-pyridin-2-yl-thiophene-2-carbonyl)-thiophene-3-carbonitrile] | < 10 | < 10
N#Cc1c(NCC2CCCO2)sc(C(=O)c2ccc(-c3ccccn3)s2)c1N (stereo not shown) [Compound 1-80, 4-Amino-5-(5-pyridin-2-yl-thiophene-2-carbonyl)-2-[(tetrahydro-furan-2-ylmethyl)-amino]-thiophene-3-carbonitrile] | < 10 | < 10
COC(=O)C(CC(C)C)Nc1sc(C(=O)c2cc(-c3ccc(Cl)c(Cl)c3)no2)c(N)c1C#N (stereo not shown) [Compound 1-84, 2-{4-Amino-3-cyano-5-[3-(3,4-dichloro-phenyl)-isoxazole-5-carbonyl]-thiophen-2-ylamino}-4-methyl-pentanoic acid methyl ester] | > 10 | > 10
COC(=O)C(CC(C)C)Nc1sc(C(=O)c2ccc(C)cc2C)c(N)c1C#N (stereo not shown) [Compound 1-87, 2-[4-Amino-3-cyano-5-(2,4-dimethyl-benzoyl)-thiophen-2-ylamino]-4-methyl-pentanoic acid methyl ester] | > 10 | > 10
COC(=O)C(CCSC)Nc1sc(C(=O)c2ccc(C)cc2C)c(N)c1C#N (stereo not shown) [Compound 1-88, 2-[4-Amino-3-cyano-5-(2,4-dimethyl-benzoyl)-thiophen-2-ylamino]-4-methylsulfanyl-butyric acid methyl ester] | < 10 | > 10
Cc1ccc(C(=O)c2sc(Nc3ccc(C(=O)NC4CCOC4=O)cc3)c(C#N)c2N)c(C)c1 (stereo not shown) [Compound 1-89, 4-[4-Amino-3-cyano-5-(2,4-dimethyl-benzoyl)-thiophen-2-ylamino]-N-(2-oxo-tetrahydro-furan-3-yl)-benzamide] | < 10 | < 10
Cc1ccc(C(=O)c2sc(NC3CCOC3=O)c(C#N)c2N)c(C)c1 (stereo not shown) [Compound 1-91, 4-Amino-5-(2,4-dimethyl-benzoyl)-2-(2-oxo-tetrahydro-furan-3-ylamino)-thiophene-3-carbonitrile] | < 10 | > 10
COc1ccc(OC)c(C(=O)c2sc(Nc3ccccc3F)c(C#N)c2N)c1 [Compound 1-92, 4-Amino-5-(2,5-dimethoxy-benzoyl)-2-(2-fluoro-phenylamino)-thiophene-3-carbonitrile] | < 10 | < 10
COc1ccc(Nc2sc(C(=O)c3cc(OC)ccc3OC)c(N)c2C#N)cc1 [Compound 1-93, 4-Amino-5-(2,5-dimethoxy-benzoyl)-2-(4-methoxy-phenylamino)-thiophene-3-carbonitrile] | < 10 | < 10
COc1ccc(OC)c(C(=O)c2sc(Nc3ccc4c(c3)CCC4)c(C#N)c2N)c1 [Compound 1-94, 4-Amino-5-(2,5-dimethoxy-benzoyl)-2-(indan-5-ylamino)-thiophene-3-carbonitrile] | < 10 | < 10
COC(=O)C(CCSC)Nc1sc(C(=O)c2cc(OC)ccc2OC)c(N)c1C#N (stereo not shown) [Compound 1-95, 2-[4-Amino-3-cyano-5-(2,5-dimethoxy-benzoyl)-thiophen-2-ylamino]-4-methylsulfanyl-butyric acid methyl ester] | < 10 | > 10
COc1ccc(OC)c(C(=O)c2sc(Nc3ccc(Oc4ccccc4)cc3)c(C#N)c2N)c1 [Compound 1-96, 4-Amino-5-(2,5-dimethoxy-benzoyl)-2-(4-phenoxy-phenylamino)-thiophene-3-carbonitrile] | < 10 | > 10
COc1ccc(OC)c(C(=O)c2sc(Nc3ccc(C(=O)NC4CCOC4=O)cc3)c(C#N)c2N)c1 (stereo not shown) [Compound 1-97, 4-[4-Amino-3-cyano-5-(2,5-dimethoxy-benzoyl)-thiophen-2-ylamino]-N-(2-oxo-tetrahydro-furan-3-yl)-benzamide] | > 10 | < 10
COc1ccc(OC)c(C(=O)c2sc(NC3CCOC3=O)c(C#N)c2N)c1 (stereo not shown) [Compound 1-98, 4-Amino-5-(2,5-dimethoxy-benzoyl)-2-(2-oxo-tetrahydro-furan-3-ylamino)-thiophene-3-carbonitrile] | < 10 | > 10

More lines, now with the values ahead:

IC50 [1] [µM] | IC50 (PDE4D) [µM] | SMILES
< 10 | < 10 | COc1ccc(C(=O)c2sc(Nc3ccccc3F)c(C#N)c2N)c(OC)c1 [Compound 1-100, 4-Amino-5-(2,4-dimethoxy-benzoyl)-2-(2-fluoro-phenylamino)-thiophene-3-carbonitrile]
< 10 | < 10 | COc1ccc(Nc2sc(C(=O)c3ccc(OC)cc3OC)c(N)c2C#N)cc1 [Compound 1-101, 4-Amino-5-(2,4-dimethoxy-benzoyl)-2-(4-methoxy-phenylamino)-thiophene-3-carbonitrile]
< 10 | < 10 | COc1ccc(C(=O)c2sc(Nc3ccc4c(c3)CCC4)c(C#N)c2N)c(OC)c1 [Compound 1-102, 4-Amino-5-(2,4-dimethoxy-benzoyl)-2-(indan-5-ylamino)-thiophene-3-carbonitrile]
> 10 | > 10 | COc1ccc(C(=O)c2sc(Nc3ccc(C(=O)NC4CCOC4=O)cc3)c(C#N)c2N)c(OC)c1 (stereo not shown) [Compound 1-103, 4-[4-Amino-3-cyano-5-(2,4-dimethoxy-benzoyl)-thiophen-2-ylamino]-N-(2-oxo-tetrahydro-furan-3-yl)-benzamide]
< 10 | < 10 | CCc1ccccc1Nc1sc(C(=O)c2ccc(OC)cc2OC)c(N)c1C#N [Compound 1-104, 4-Amino-5-(2,4-dimethoxy-benzoyl)-2-(2-ethyl-phenylamino)-thiophene-3-carbonitrile]
< 10 | < 10 | COc1ccc(Nc2sc(C(=O)c3coc4ccccc34)c(N)c2C#N)cc1 [Compound 1-105, 4-Amino-5-(benzofuran-3-carbonyl)-2-(4-methoxy-phenylamino)-thiophene-3-carbonitrile]
< 10 | > 10 | COC(=O)C(CC(C)C)Nc1sc(C(=O)c2coc3ccccc23)c(N)c1C#N (stereo not shown) [Compound 1-106, 2-[4-Amino-5-(benzofuran-3-carbonyl)-3-cyano-thiophen-2-ylamino]-4-methyl-pentanoic acid methyl ester]
< 10 | < 10 | COC(=O)C(CCSC)Nc1sc(C(=O)c2coc3ccccc23)c(N)c1C#N (stereo not shown) [Compound 1-107, 2-[4-Amino-5-(benzofuran-3-carbonyl)-3-cyano-thiophen-2-ylamino]-4-methylsulfanyl-butyric acid methyl ester]
< 10 | < 10 | N#Cc1c(Nc2ccc(C(=O)NC3CCOC3=O)cc2)sc(C(=O)c2coc3ccccc23)c1N (stereo not shown) [Compound 1-108, 4-[4-Amino-5-(benzofuran-3-carbonyl)-3-cyano-thiophen-2-ylamino]-N-(2-oxo-tetrahydro-furan-3-yl)-benzamide]
< 10 | < 10 | CCc1ccccc1Nc1sc(C(=O)c2coc3ccccc23)c(N)c1C#N [Compound 1-109, 4-Amino-5-(benzofuran-3-carbonyl)-2-(2-ethyl-phenylamino)-thiophene-3-carbonitrile]
